Read-outs that look alike come from different tables or passages of the source. Values belong to the compound of their own block, whether it stands above or below them.
Tests used:
[1] = target: human neurokinin 1 receptor (Homo sapiens, UniProt P25103); assay: Real-time cAMP accumulation assay (GloSensor) in CHOhNK1 cells; assay type: cell-based; settings: for type of antagonism (insurmountability): antagonist pre-incubation before SP or NKA, cAMP and morphology assays; for decrease of onset of NKA-induced cAMP production: antagonist pretreatment
Chain of human neurokinin 1 receptor (P25103 whole entry): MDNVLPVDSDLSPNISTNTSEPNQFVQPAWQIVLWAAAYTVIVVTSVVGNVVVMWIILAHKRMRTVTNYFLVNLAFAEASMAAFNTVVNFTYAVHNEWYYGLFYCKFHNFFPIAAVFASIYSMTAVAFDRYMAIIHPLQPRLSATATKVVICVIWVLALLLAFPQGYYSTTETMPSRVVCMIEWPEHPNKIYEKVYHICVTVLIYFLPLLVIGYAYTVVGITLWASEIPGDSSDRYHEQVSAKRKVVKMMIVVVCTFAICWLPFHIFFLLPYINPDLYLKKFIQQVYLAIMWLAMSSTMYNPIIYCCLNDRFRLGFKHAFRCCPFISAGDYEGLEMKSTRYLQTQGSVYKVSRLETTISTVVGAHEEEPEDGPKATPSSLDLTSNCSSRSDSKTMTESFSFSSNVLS
Protocol: Real-time cAMP production was measured using the life cell cAMP GloSensor^TM assay[11],[12]. The technology is based on a cAMP-biosensor, which undergoes a conformational change upon cAMP binding, followed by the turnover of Luciferin.
CHOhNK1 cells were transiently transfected with the pGloSensor™-22F cAMP (6 ng/µL) plasmid using FuGene HD (3 µL:1 µg DNA plasmid) as a transfection reagent. Accordingly, cells were harvested and reconstituted to 0.5 × 10^6 cells/ml (10,000 cells/well) in DMEM/F-12/ HEPES supplemented with 1% FCS, 2 mM glutamine and 1 mg/ml G418. The diluted plasmid solution was combined with the transfection reagent and incubated for 20 min at room temperature. Subsequently, the transfection mixture and cell solution were mixed for additional 5 min before plating in 384-well plates. The transfected cells were incubated for 24 h at 37 °C + 5% CO2 followed by treatment with Glo-substrate (3% v/v) for 2 h at room temperature. […] Real-time changes in the level of cAMP were detected using an Envision HTS microplate reader 2103 (PerkinElmer).
(§1) The onset of receptor activation was analyzed by calculating the slope with linear regression of the first 8 minutes of the cellular response.2 onset=Δcellularresponse/Δtime

NK1 receptor [2] = target: T1, NK1 receptor (Homo sapiens, UniProt P25103); assay: Impedance-based morphology assay (xCELLigence) in U-251 MG cells; assay type: cell-based; parameters: host or cells: U-251 MG cells; settings: for Onset of receptor activation, morphology, NKA / Onset of receptor activation, morphology, SP / decrease of onset of NKA-induced morphological changes / decrease of onset of SP-induced impedance changes: first 8 min; for decrease of onset of NKA-induced morphological changes / decrease of onset of SP-induced impedance changes: antagonist pretreatment; for increase of EC50 value of NKA: xCELLigence, highest antagonist concentration; for IC50: antagonist pre-incubation
T1 sequence (P25103 whole entry): as above
Protocol: Label-free morphology assays were performed using the xCELLigence RTCA system as described previously[27],[42].
as §1

NK1 receptor [3] = target: T1, NK1 receptor; parameters: host or cells: U-251 MG cells; settings: room temperature; cited from earlier work
NK1 receptor [4] = target: T1, NK1 receptor; parameters: host or cells: U-251 MG cells; settings: agonist alone; normalized to NKA only; cited from earlier work
NK1 receptor [5] = target: T1, NK1 receptor; parameters: host or cells: U-251 MG cells; settings: cited from earlier work
NK1 receptor [6] = target: T1, NK1 receptor; assay: Radioligand binding affinity at the NK1 receptor ([3H][Sar9,Met(O2)11]SP, CHOhNK1 membranes)
NK1 receptor [7] = target: T1, NK1 receptor; assay: Dual-point competition association assay (kinetic rate index); assay type: binding; settings: 4 °C; Bt1 (30 min)/Bt2 (120 min); vs radioligand [3H][Sar9,Met(O2)11]SP
Protocol: Dual-point competition association assays were performed as prescribed previously, following the radioligand binding protocol of Nederpelt et al.[27].
Data from dual-point competition association assays were analyzed by dividing the specific binding at t1 (Bt1) with the specific binding at t2 (Bt2).1 KRI=Bt1/Bt2 Data from morphology and cAMP experiments were analyzed as described previously. […] Results were normalized to the maximal response induced by agonist without antagonist.

[8] = NKA after 0.07 nM antagonist, first 8 min
[9] = NKA after 0.21 nM antagonist, first 8 min
[10] = NKA after 0.7 nM antagonist, first 8 min
[11] = SP after 0.07 nM antagonist, first 8 min
[12] = SP after 0.21 nM antagonist, first 8 min
[13] = SP after 0.7 nM antagonist, first 8 min
[14] = NKA after 0.07 nM antagonist, normalized to NKA only
[15] = NKA after 0.21 nM antagonist, normalized to NKA only
[16] = NKA after 0.7 nM antagonist, normalized to NKA only
[17] = SP after 0.07 nM antagonist, normalized to SP only
[18] = SP after 0.21 nM antagonist, normalized to SP only
[19] = SP after 0.7 nM antagonist, normalized to SP only

Onset of receptor activation, cAMP, NKA [1, 8]: 75 ± 13^NS RLU min^−1
Onset of receptor activation, cAMP, NKA [1, 9]: 43 ± 7.7 RLU min^−1
Onset of receptor activation, cAMP, NKA [1, 10]: 9.7 ± 1.6 RLU min^−1
Onset of receptor activation, cAMP, SP [1, 11]: 94 ± 13 RLU min^−1
Emax ([1]; SP after 0.07 nM antagonist, normalized to SP only, read-out: Emax cAMP SP): 62 ± 5.7%
Onset of receptor activation, cAMP, SP [1, 12]: 63 ± 17 RLU min^−1
Emax ([1]; SP after 0.21 nM antagonist, normalized to SP only, read-out: Emax cAMP SP): 55 ± 15%
Onset of receptor activation, cAMP, SP [1, 13]: 36 ± 7 RLU min^−1
Emax ([1]; SP after 0.7 nM antagonist, normalized to SP only, read-out: Emax cAMP SP): 19 ± 5.5%
type of antagonism (insurmountability) [1]: fully insurmountable
decrease of onset of SP-induced cAMP production ([1]; antagonist pre-incubation, first 8 min): up to 6 fold
decrease of onset of NKA-induced cAMP production ([1]; first 8 min): 15 fold
decrease of potency of NKA ([1]; cAMP assay): 10 fold
Emax ([1]; cAMP assay, highest antagonist concentration, read-out: decrease of Emax of SP in comparison to control): > 80%
Emax ([1]; read-out: Emax cAMP NKA, NKA after 0.07 nM antagonist, normalized to NKA only): 71 ± 13%
Emax ([1]; read-out: Emax cAMP NKA, NKA after 0.21 nM antagonist, normalized to NKA only): 43 ± 19%
Emax ([1]; read-out: Emax cAMP NKA, NKA after 0.7 nM antagonist, normalized to NKA only): 7.8 ± 4.2%
Onset of receptor activation, morphology, NKA (NK1 receptor [2]; NKA after 0.07 nM antagonist): 0.05 ± 0.011^NS NCI min^−1
Onset of receptor activation, morphology, NKA (NK1 receptor [2]; NKA after 0.21 nM antagonist): 0.03 ± 0.007^NS NCI min^−1
Onset of receptor activation, morphology, NKA (NK1 receptor [2]; NKA after 0.7 nM antagonist): 0.006 ± 0.003 NCI min^−1
Onset of receptor activation, morphology, SP (NK1 receptor [2]; SP after 0.07 nM antagonist): 0.05 ± 0.002^NS NCI min^−1
Onset of receptor activation, morphology, SP (NK1 receptor [2]; SP after 0.21 nM antagonist): 0.04 ± 0.006^NS NCI min^−1
Onset of receptor activation, morphology, SP (NK1 receptor [2]; SP after 0.7 nM antagonist): 0.009 ± 0.003 NCI min^−1
Emax (NK1 receptor [2]; U-251, SP after 0.07 nM antagonist, normalized to SP only, read-out: Emax morphology SP): 96 ± 7.6%
Emax (NK1 receptor [2]; U-251, SP after 0.21 nM antagonist, normalized to SP only, read-out: Emax morphology SP): 79 ± 5%
Emax (NK1 receptor [2]; U-251, SP after 0.7 nM antagonist, normalized to SP only, read-out: Emax morphology SP): 53 ± 8.5%
Emax (NK1 receptor [2]; U-251, read-out: Emax morphology NKA, NKA after 0.07 nM antagonist, normalized to NKA only): 97 ± 2.3%
Emax (NK1 receptor [2]; U-251, read-out: Emax morphology NKA, NKA after 0.21 nM antagonist, normalized to NKA only): 79 ± 10%
Emax (NK1 receptor [2]; U-251, read-out: Emax morphology NKA, NKA after 0.7 nM antagonist, normalized to NKA only): 30 ± 6.2%
decrease of onset of NKA-induced morphological changes (NK1 receptor [2]): 8 fold
decrease of onset of SP-induced impedance changes (NK1 receptor [2]): 5 fold
increase of EC50 value of NKA (NK1 receptor [2]): 7 fold
Structure (SMILES): C[C@@H](O[C@H]1OCCN(Cc2n[nH]c(=O)[nH]2)[C@H]1c1ccc(F)cc1)c1cc(C(F)(F)F)cc(C(F)(F)F)c1 [Aprepitant, aprepitant]
receptor dissociation rate (NK1 receptor [3]): 0.0054 min⁻¹

Structure (SMILES): CSCC[C@H](NC(=O)[C@H](CC(C)C)NC(=O)CNC(=O)[C@@H](NC(=O)[C@H](Cc1ccccc1)NC(=O)[C@H](CO)NC(=O)[C@H](CC(=O)O)NC(=O)[C@@H](NC(=O)[C@H](CCCCN)NC(=O)[C@@H](N)Cc1c[nH]cn1)[C@@H](C)O)C(C)C)C(N)=O [NKA, neurokinin A]
Emax morphology NKA (NK1 receptor [4]): 100 ± 0.44 %

Structure (SMILES): O=c1[nH]nc(CN2CCO[C@H](OCc3cc(C(F)(F)F)cc(C(F)(F)F)c3)[C@@H]2c2ccccc2)[nH]1 [L-742,694]
effect on Emax of SP after pre-incubation (NK1 receptor [5]): clear decrease

Structure (SMILES): Cc1ccccc1-c1cc(N2CCN(C)CC2)ncc1N(C)C(=O)C(C)(C)c1cc(C(F)(F)F)cc(C(F)(F)F)c1 [netupitant]
type of antagonism (NK1 receptor [5]): insurmountable

pKi (NK1 receptor [6]): 9.3 ± 0.04
KRI (kinetic rate index) (NK1 receptor [7]): 1.0 ± 0.13
Onset of receptor activation, cAMP, NKA [1, 8]: 98 ± 29^NS RLU min^−1
Emax cAMP NKA [1, 14]: 84 ± 18^NS %
Onset of receptor activation, cAMP, NKA [1, 9]: 98 ± 33^NS RLU min^−1
Emax cAMP NKA [1, 15]: 67 ± 10 %
Onset of receptor activation, cAMP, NKA [1, 10]: 71 ± 22^NS RLU min^−1
Emax cAMP NKA [1, 16]: 61 ± 15 %
Onset of receptor activation, cAMP, SP [1, 11]: 125 ± 31^NS RLU min^−1
Emax cAMP SP [1, 17]: 78 ± 4.5 %
Onset of receptor activation, cAMP, SP [1, 12]: 120 ± 27^NS RLU min^−1
Emax cAMP SP [1, 18]: 75 ± 7.7 %
Onset of receptor activation, cAMP, SP [1, 13]: 158 ± 26^NS RLU min^−1
Emax cAMP SP [1, 19]: 61 ± 10 %
EC50 ([1]; SP after 30 min pre-incubation with 0.07 nM antagonist, read-out: EC50 cAMP SP): 1.9 ± 0.5 nM
EC50 ([1]; SP after 30 min pre-incubation with 0.21 nM antagonist, read-out: EC50 cAMP SP): 2.7 ± 0.8 nM
EC50 ([1]; SP after 30 min pre-incubation with 0.7 nM antagonist, read-out: EC50 cAMP SP): 2.3 ± 0.7 nM
type of antagonism (insurmountability) [1]: partially insurmountable
IC50 ([1]; antagonist pre-incubation, then EC80 concentration of NKA, read-out: IC50 (cAMP)): 0.26 ± 0.08 nM
IC50 ([1]; antagonist pre-incubation, then EC80 concentration of SP, read-out: IC50 (cAMP assay)): 0.15 ± 0.02 nM
decrease of onset of NKA-induced cAMP production ([1]; first 8 min): did not significantly decrease
decrease of potency of NKA ([1]; cAMP assay): did not affect
decrease of Emax of SP in comparison to control ([1]; cAMP assay, highest antagonist concentration): 39%
EC50 ([1]; read-out: EC50 cAMP NKA, NKA after 30 min pre-incubation with 0.07 nM antagonist): 399 ± 19 nM
EC50 ([1]; read-out: EC50 cAMP NKA, NKA after 30 min pre-incubation with 0.21 nM antagonist): 304 ± 89 nM
EC50 ([1]; read-out: EC50 cAMP NKA, NKA after 30 min pre-incubation with 0.7 nM antagonist): 1080 ± 356 nM
Onset of receptor activation, morphology, NKA (NK1 receptor [2]; NKA after 0.07 nM antagonist): 0.06 ± 0.005^NS NCI min^−1
Emax morphology NKA (NK1 receptor [2]; [14]): 109 ± 7.6^NS %
Onset of receptor activation, morphology, NKA (NK1 receptor [2]; NKA after 0.21 nM antagonist): 0.05 ± 0.007^NS NCI min^−1
Emax morphology NKA (NK1 receptor [2]; [15]): 108 ± 6.7^NS %
Onset of receptor activation, morphology, NKA (NK1 receptor [2]; NKA after 0.7 nM antagonist): 0.04 ± 0.014^NS NCI min^−1
Emax morphology NKA (NK1 receptor [2]; [16]): 81 ± 8.9 %
Onset of receptor activation, morphology, SP (NK1 receptor [2]; SP after 0.07 nM antagonist): 0.06 ± 0.006^NS NCI min^−1
Emax morphology SP (NK1 receptor [2]; [17]): 97 ± 5.6^NS %
Onset of receptor activation, morphology, SP (NK1 receptor [2]; SP after 0.21 nM antagonist): 0.05 ± 0.006^NS NCI min^−1
Emax morphology SP (NK1 receptor [2]; [18]): 104 ± 4.2^NS %
Onset of receptor activation, morphology, SP (NK1 receptor [2]; SP after 0.7 nM antagonist): 0.03 ± 0.005 NCI min^−1
Emax morphology SP (NK1 receptor [2]; [19]): 82 ± 6.9 %
EC50 (NK1 receptor [2]; SP after 30 min pre-incubation with 0.07 nM antagonist, read-out: EC50 morphology SP): 0.053 ± 0.02 nM
EC50 (NK1 receptor [2]; SP after 30 min pre-incubation with 0.21 nM antagonist, read-out: EC50 morphology SP): 0.06 ± 0.015 nM
EC50 (NK1 receptor [2]; SP after 30 min pre-incubation with 0.7 nM antagonist, read-out: EC50 morphology SP): 3 ± 1.3 nM
IC50 (NK1 receptor [2]; then EC80 concentration of NKA, read-out: IC50 (morphology)): 0.12 ± 0.006 nM
IC50 (NK1 receptor [2]; then EC80 concentration of SP, read-out: IC50 (morphology assay)): 0.22 ± 0.1 nM
decrease of onset of NKA-induced morphological changes (NK1 receptor [2]): did not significantly decrease
decrease of onset of SP-induced impedance changes (NK1 receptor [2]): less significant
EC50 (NK1 receptor [2]; read-out: EC50 morphology NKA, NKA after 30 min pre-incubation with 0.07 nM antagonist): 3 ± 0.52 nM
EC50 (NK1 receptor [2]; read-out: EC50 morphology NKA, NKA after 30 min pre-incubation with 0.21 nM antagonist): 3.3 ± 0.45 nM
EC50 (NK1 receptor [2]; read-out: EC50 morphology NKA, NKA after 30 min pre-incubation with 0.7 nM antagonist): 8.5 ± 0.46 nM
increase of EC50 value of NKA (NK1 receptor [2]): 2 fold
Structure (SMILES): C[C@@H](O[C@H]1OCCN(Cc2n[nH]c(=O)[nH]2)[C@H]1c1ccccc1)c1cc(C(F)(F)F)cc(C(F)(F)F)c1 [DFA, desfluoro aprepitant]
